Test results reported in article PMC13242511, “Disrupting Notch signalling by a small molecule inhibiting dihydroorotate dehydrogenase activity” (Scientific Reports, 2026).
Several values for one entry are separate records, joined by “and”; a condition that tells them apart may be missing. Equal values may be shown once. Read-outs that look alike come from different tables or passages of the source. One block for each molecule: values may come before it.

Tests used:
Notch signalling = assay: Notch reporter assay (12xCSL firefly luciferase / renilla luciferase, HEK293T Notch1ΔE reporter cell line clone #A1-11); type: cell-based; design: AUC Notch: scale not given here; conditions: for Bottom (Emax): Emax indicated independent from assay constraints, in % (unit assumed); for AUC Notch: area under the 14-point dose-response curve; for Notch assay: overview in comparison to compound C, Supplemental Fig. 9
Text: To identify novel Notch inhibitors in an unbiased manner, we generated a novel Notch reporter construct, which records the level of Notch signalling immediately downstream of receptor activation rather than further downstream in the signalling cascade, for example at the level of Hes and Hey proteins (Fig. 1B). […] The reporter construct carries piggy-bac sequences at both ends of the promoter-reporter cassette as well as cSH4 insulator elements to reduce transcriptional noise[21] and was transfected into HEK293T cells. To achieve a robust level of Notch receptor activity in the HEK293T reporter cell line and to confine the search for inhibitors to compounds affecting the receptor function and eliminating the need for ligand activation, a truncated ligand-independent version of the Notch1 receptor, mimicking an S2-cleaved Notch1 receptor (Notch1ΔE) and spontaneously activated by S3-cleavage[22] (Fig. 1C) was introduced into the cell line carrying the reporter construct (Fig. 1D). In addition, an HSV-TK-renilla luciferase plasmid was introduced into the cell line as an internal control for normalisation of the reporter expression (Fig. 1D).
A de novo Notch reporter construct, composed of six dimeric CSL binding sites linked to a basic b-globin promoter and followed by a firefly luciferase gene and a PEST degradation domain was synthesised (GeneArt). The construct was stably introduced into HEK293T cells, and zeocin (0.1 mg/ml) or Puromycin (0.05 mg/ml (ThermoFisher, cat #R25001, #A1113803) were used as selection markers. A clonal cell line (clone #A1) with robust renilla expression and enhanced firefly luciferase expression upon transient transfection of Notch1 ICD or Notch1ΔE constructs was selected, and a UB6 promoter-Notch1DE construct was stably introduced into this cell line using Blasticidin (0.1 mg/ml; ThermoFisher, cat #A1113903) as a selection marker. Stable cell lines were generated by serial dilution and only clonal colonies were selected for further evaluation. To measure luciferase reporter activity, cells were washed in cold PBS, detached, and collected in pre-warmed cell culture medium and centrifugated for five min at 200xg. The cell pellet was resuspended in medium, cells were counted, and 4,000 cells were seeded in each well of a white 384 well plate (Corning #3670) in 20 µl medium containing either DMSO or the GSI DAPT (N-[N-(3,5-Difluorophenacetyl)-L-alanyl]-S-phenylglycine t-butyl ester, Sigma-Aldrich, cat #565784-M) and incubated for 24 h. The efficacy of the reporter gene system was determined by monitoring the level of luciferase activation in the absence or presence of different amounts of DAPT in several cell clones. Luciferase activity was assessed using the dual-GLO luciferase detection kit from Promega (cat # E2920), following the manufacturer’s instructions. A minimum of two technical replicates were measured per clone using a SpectraMaxi3 plate reader (Molecular Devices). Reporter activity of different clones and in response to DAPT was assessed by normalising firefly (Notch activity) to renilla luciferase signals. Normalised signals of individual clones cultivated in DMSO were then compared to corresponding signals generated with DAPT-treated cells. The cell clone with the strongest signal to control ratio (DMSO to DAPT) was then selected for further exploration (clone #A1-11).
37,966 compounds were spotted by the compound center at SciLifeLab (https://www.scilifelab.se/) on a total of 120 plates (Greiner #781080) at a fixed concentration of 10 µM and the screening process spanned five consecutive sessions. The layout of each plate contained one column for DMSO and one for DAPT controls to determine the quality and reliability of the data. DAPT controls were spotted at 10 µM and DMSO was spotted in an equimolar volume. In addition, plates spotted with only DMSO were utilized to investigate the impact of plate effects before and after each session. […]

γ-secretase complex = γ-secretase complex (Homo sapiens, UniProt P49768); assay: APP-C99 counter assay (GSI reporter assay); type: cell-based; design: AUC APP: scale not given here; conditions: for Hill-slope: bottom constrained to Emax of positive control LY-411575; for AUC APP: area under the 14-point dose-response curve, replicates averaged; for APP assay: overview in comparison to compound C, Supplemental Fig. 9
Method: To this end, we used a previously established reporter gene-based GSI assay (APP-C99) (Fig. 3A), which measures γ-secretase activity through cleavage of amyloid precursor protein (APP), another protein processed by the γ-secretase complex[24]
Plasmids for APP and luciferase are described in[24] and the renilla plasmid described above generated for this project was used to normalize firefly values. 24 h post transfection cells were seeded on compound plates and cells were cultivated for 24 h before luciferase signals were read, as described.
Two-fold concentrations of compounds were diluted in 10 µl cell culture medium and brought to one-fold by seeding 10 µl containing 4000 cells of the respective cell type on each well of a 384-well plate, as described above. Analogous to the previous assays, all plates contained one DMSO and DAPT control column with the Notch reporter cell line (#A1-11) and a DMSO only and Notch inhibitor control plate was read before the measuring the screening plates. In addition, DAPT and DMSO were spotted in a dose response fashion, and a minimum of four replicates were read. Dose-responses of compounds were recorded in triplicates for each concentration reading out the dual luciferase reporters, as described above. Dose response assays were read together in one session. To measure compound effects, the different assays dose–response curves were fitted using the log(inhibitor) vs. response – Variable slope (model: Y = Bottom + (Top–Bottom)/(1 + 10^((LogIC50-X)*HillSlope)) equation.
A DMSO plate was read before measuring luciferase activity of compound spotted plates. APP firefly luciferase reporter assays were read with a signal integration time of 0.1 s, instead of 0.5 s used for the Notch reporter to reduce signal overlap between wells. […] The area-under-the-curve (AUC) was calculated on dose–response curves using Graphpad Prism.

[1] = Homo sapiens, HEK-293T, 14p Notch assay DR, bottom constrained to Emax of positive control DAPT, read-out: approximated IC50
[2] = Homo sapiens, HEK-293T, 14p Notch assay DR, log10 value, bottom constrained to Emax of positive control DAPT, read-out: approximated LogIC50 (converted)
[3] = 9p dose response, AUCs averaged when replicates available
[4] = 9p dose response, log10 of averaged IC50
[5] = 14p dose response, AUCs averaged when replicates available

Compound: NC(=O)[C@@H](CC1CC1)[C@@H](CCC(F)(F)F)C(=O)N[C@H]1N=C(c2ccccc2)c2cccc(F)c2NC1=O [BMS-983970, reference compound]
IC50 (Notch signalling; 9p dose response, single replicates, read-out: approximated IC50s 9p Notch reporter assay): 1.2 nM | AUC 9p Notch reporter assay (Notch signalling; [3]): 2.16E+02 | IC50 (Notch signalling; 9p dose response, averaged over replicates, read-out: 9p Notch reporter assay averaged IC50s): 1.2 nM | 9p Notch reporter assay averaged IC50s (log) (Notch signalling; [4]): -8.9 | IC50 (Notch signalling; 14-point, unit inferred, replicates averaged, read-out: approxiated IC50s 14p Notch reporter assay): 3.6 nM | Bottom (Emax) (Notch signalling; 14p Notch assay DR): 49.6 and 50.5 and 62.5 | IC50 (Notch signalling; 14p Notch assay DR, Notch inhibitor controls, no bottom constraint named, read-out: approximated IC50): 3.6 nM and ~2.3 nM | IC50 (Notch signalling; 14p Notch assay DR, averaged when replicate measurements were available, read-out: averaged IC50s): 3.6 nM | approximated LogIC50 [M] (Notch signalling; 14p Notch assay DR, log10 value, Notch inhibitor controls, no bottom constraint named): -8.5 M | IC50 (Notch signalling; 14p dose response, single replicates, read-out: approximated IC50s 14p Notch reporter assay): 3.6 nM and 3.5 nM | AUC 14p Notch reporter assay (Notch signalling; [5]): 4.10E+02 | IC50 (Notch signalling; 14p dose response, averaged over replicates, read-out: 14p Notch reporter assay averaged IC50s): 3.6 nM | 14p Notch reporter assay averaged IC50s (log) (Notch signalling; 14p dose response, log10 of averaged IC50): -8.4 | AUC Notch (Notch signalling; replicates averaged): 410.0 | Notch assay (Notch signalling): higher potency | Hill-Slope 9p APP counter assay averaged (γ-secretase complex; 9p dose response): -1.6 | AUC 9p APP-counter assay (γ-secretase complex; [3]): 2.41E+02 | IC50 (γ-secretase complex; 9p dose response, averaged, read-out: 9p APP counter assay averaged IC50s): 22 nM | 9p APP counter assay averaged IC50s (log) (γ-secretase complex; [4]): -7.7 | IC50 (γ-secretase complex; 9p dose response, read-out: approximated IC50s 9p APP counter assay): 22 nM | IC50 (γ-secretase complex; 14-point, unit inferred, some fits outside of tested concentration range, read-out: approximated IC50s 14p APP-counter assay): 400 nM | Bottom (Emax) (γ-secretase complex; 14p APP assay DR, Emax indicated independent from assay constraints): 45.9 and 48.3 | IC50 (γ-secretase complex; 14p APP assay DR, Notch inhibitor controls, no bottom constraint named, read-out: approximated IC50): 44 nM and 70 nM | AUC. 14p APP-counter assay (γ-secretase complex; [5]): 4.87E+02 | IC50 (γ-secretase complex; 14p dose response, averaged over replicates, read-out: 14p APP counter assay averaged IC50s): 57 nM | AUC APP (γ-secretase complex): 486.6 | APP assay (γ-secretase complex): higher potency

Compound: Cc1ccccc1CN1CCC2(CC1)OCCc1c2[nH]c2ccc(Br)cc12 [CBK040353]
Bottom (Emax) (Notch signalling; 14p Notch assay DR): 48.2 | IC50 (Notch signalling; Homo sapiens, HEK-293T, 14-point dose-response, Fig. 4, read-out: approximated IC50, Notch reporter assay): 1800 nM | IC50 (Notch signalling; [1]): 1700 nM | IC50 (Notch signalling; [2]): 1580 nM | AUC Notch (Notch signalling; replicates averaged): 584.0 | Hill-slope (γ-secretase complex; 14p APP assay DR): 0.0279 | AUC APP (γ-secretase complex): 724.9

Compound: c1ccc(-c2ccccc2CN2CCC3(CC2)OCCc2c3[nH]c3ccccc23)cc1 [CBK040201]
Bottom (Emax) (Notch signalling; 14p Notch assay DR): 50.0 | IC50 (Notch signalling; [1]): 2000 nM | IC50 (Notch signalling; [2]): 2000 nM | AUC Notch (Notch signalling; replicates averaged): 592.0 | Hill-slope (γ-secretase complex; 14p APP assay DR): 0.0232 | AUC APP (γ-secretase complex): 739.3

Compound: COc1ccc2[nH]c3c(c2c1)CCOC31CCN(C(=O)c2cccc3cccc(C(=O)O)c23)CC1 [CBK047020]
Hill-slope (γ-secretase complex; 14p APP assay DR): 20.5

The next lines start with results.

IC50 (Notch signalling; [1]): 7100 nM | IC50 (Notch signalling; [2]): 7940 nM | Hill-slope (γ-secretase complex; 14p APP assay DR): 0.121 | remaining activity at 10 µM (γ-secretase complex; 24 h, 10µM, APP-C99 counter assay, read-out: 3p-DR in % of DMSO counter): 118% | remaining activity at 25 µM (γ-secretase complex; 24 h, 25µM, APP-C99 counter assay, read-out: 3p-DR in % of DMSO counter): 144% | remaining activity at […] (γ-secretase complex; 24 h, 1,25µM, APP-C99 counter assay, read-out: 3p-DR in % of DMSO counter): 96.6% | AUC APP (γ-secretase complex): 578.1
Compound: CC1CCc2c(sc3ncnc(NCCCN4CCCCCC4=O)c23)C1 (centres unmarked) [CBK305947]
Bottom (Emax) (Notch signalling; 14p Notch assay DR): 34.4 | activity at 10 µM (Notch signalling; Homo sapiens, HEK-293T, 10 µM, primary screen, 24 h, unit from Fig. 2 legend, read-out: Primary screen at 10 µM (Notch reporter signal)): 41.4% | activity at 10 µM (Notch signalling; Homo sapiens, HEK-293T, 10 µM, three-dose confirmation screen, unit from Fig. 2 legend, read-out: Hit confirmation at 10 µM (Notch reporter signal)): 66.5% | activity at 10 µM (Notch signalling; Homo sapiens, HEK-293T, 10µM, 3-point DR confirmation screen, Notch reporter assay, read-out: inhibitor ratio in % of DMSO in 3 point DR): 66.5% | activity at 10 µM (Notch signalling; Homo sapiens, HEK-293T, 10 µM, sheet conf vs counter 10 µM, same values as 3-point DR confirmation screen, read-out: Confirmation screen): 66.5% | activity at 25 µM (Notch signalling; Homo sapiens, HEK-293T, 25µM, 3-point DR confirmation screen, Notch reporter assay, read-out: inhibitor ratio in % of DMSO in 3 point DR): 46.7% | activity at 25 µM (Notch signalling; Homo sapiens, HEK-293T, 25 µM, Notch reporter 3-point dose-confirmation assay, sheet "conf vs counter 25 µM", read-out: Confirmation screen): 46.7% | activity (Notch signalling; Homo sapiens, HEK-293T, 1,25µM, 3-point DR confirmation screen, Notch reporter assay, read-out: inhibitor ratio in % of DMSO in 3 point DR): 107% | AUC Notch (Notch signalling; replicates averaged): 316.0

APP assay (γ-secretase complex): active, potency n.d.
Compound: CC1=C(C(=O)OC2CCCCC2)C(c2ccc([N+](=O)[O-])cc2)C2=C(CC(C)(C)CC2=O)N1 (centres unmarked) [FLI-06, reference compound]
reporter signal in % of DMSO (Notch signalling; 10 µM, inhibitor controls, Supplemental Fig. 2A): 62% | Notch assay (Notch signalling): active, potency n.d.

Hill-slope (γ-secretase complex; 14p APP assay DR): 0.0221 | AUC APP (γ-secretase complex): 492.9
Compound: COc1cc(Nc2nc(-c3ccc(Cl)cc3)cn3ccnc23)cc(OC)c1OC [CBK066238]
Bottom (Emax) (Notch signalling; 14p Notch assay DR): 82.4 | AUC Notch (Notch signalling; replicates averaged): 336.0

Hill-slope (γ-secretase complex; 14p APP assay DR): 0.274
Compound: CC(c1nc(N)nc(Nc2ccccc2)n1)N1CCC(NC(=O)c2ccccc2)CC1 (centres unmarked) [CBK233672]
